Test results as given in publication PMC6522981, “Structure-based design generated novel hydroxamic acid based preferential HDAC6 lead inhibitor with on-target cytotoxic activity against primary choroid plexus carcinoma” (Journal of Enzyme Inhibition and Medicinal Chemistry, 2019).
Read-outs that look alike come from different tables or passages of the source.

Columns and labels:
[1] = tested on: CCHE-45 cells (primary choroid plexus carcinoma); test: Cytotoxicity assay using xCELLigence system; type: cell-based; settings: for IC50: xCELLigence, 96 h exposure, mean of three replicates, read-out: CCHE-45 IC50 (µM)±SEM
Protocol: Established primary Choroid plexus carcinoma (CCHE-45) were cultured as previously described, in RPMI-1640 (Lonza, BE-12-702F) supplemented with 10% Fetal Bovine Serum (FBS, Gibco, 12483–020) and 100 U/ml penicillin and 100 µg/ml streptomycin (Lonza, DE17-602F). Cells were maintained at 37 °C in a 5% CO2 humidified atmosphere.
Cytotoxicity assay by the xCELLigence system was performed using RTCA xCELLigence DP system (ACEA Biosciences, Inc., San Diego, CA, USA) as per manufacturer’s instructions https://www.aceabio.com/products/rtca-dp/, https://www.aceabio.com/products/rtca-sp[65–68]. In brief, after setting up the instruments and blanking the wells with media, CCHE-45 cells were seeded into the 96 well E-plate (ACEA Biosciences) with a density of 20,000 cells/well. Attachment and growth of the cells were monitored every 1 h. Approximately 24 h after seeding, when the cells were in the log growth phase, the cells were exposed to a range of test compound 10a concentrations (3.125, 6.25, 12.5, 25, 50, 100, 200, 400) µM for 96 h. Controls received either medium alone, or medium + DMSO with a final concentration below of 0.5%. For each concentration, duplicates were tested. Experiments were conducted in three biological repeats. Results were analyzed using the RTCA software (Version 2.0). Data was exported and average IC50 value was analyzed.
• Based on previous pilot experiment, the highest SK114 conc. (100µM)
72hrs, thus this experiment was performed with higher concentration
• Cells were incubated with the drug for 96hrs
• Experiment was done in technical duplicates

human HDAC1 = target: T1, human HDAC1 (Homo sapiens, UniProt Q13547); test: HDAC1 inhibitor enzymatic assay, % inhibition at fixed concentration (BPS Bioscience, fluorogenic); type: biochemical; settings: read-out: %inhibition of HDACs at 10µM of test compound HDAC1; 10 µM compound; mean of two replicates
T1 construct: purchased BPS Bioscience 50051

human HDAC2 = target: T2, human HDAC2 (Homo sapiens, UniProt Q92769); test: HDAC2 inhibitor enzymatic assay, % inhibition at fixed concentration; type: biochemical; settings: read-out: %inhibition of HDACs at 10µM of test compound HDAC2; 10 µM compound; mean of two replicates
T2 construct: purchased BPS Bioscience 50002

human HDAC3/NCOR2 = human HDAC3/NCOR2 (Homo sapiens, UniProt O15379); test: HDAC3/NCOR2 inhibitor enzymatic assay, % inhibition at fixed concentration; settings: read-out: %inhibition of HDACs at 10µM of test compound HDAC3
human HDAC6 = target: T3, human HDAC6 (Homo sapiens, UniProt Q9UBN7); test: HDAC6 inhibitor enzymatic assay, % inhibition at fixed concentration; settings: read-out: %inhibition of HDACs at 10µM of test compound HDAC6
T3 sequence (Q9UBN7 1-1215): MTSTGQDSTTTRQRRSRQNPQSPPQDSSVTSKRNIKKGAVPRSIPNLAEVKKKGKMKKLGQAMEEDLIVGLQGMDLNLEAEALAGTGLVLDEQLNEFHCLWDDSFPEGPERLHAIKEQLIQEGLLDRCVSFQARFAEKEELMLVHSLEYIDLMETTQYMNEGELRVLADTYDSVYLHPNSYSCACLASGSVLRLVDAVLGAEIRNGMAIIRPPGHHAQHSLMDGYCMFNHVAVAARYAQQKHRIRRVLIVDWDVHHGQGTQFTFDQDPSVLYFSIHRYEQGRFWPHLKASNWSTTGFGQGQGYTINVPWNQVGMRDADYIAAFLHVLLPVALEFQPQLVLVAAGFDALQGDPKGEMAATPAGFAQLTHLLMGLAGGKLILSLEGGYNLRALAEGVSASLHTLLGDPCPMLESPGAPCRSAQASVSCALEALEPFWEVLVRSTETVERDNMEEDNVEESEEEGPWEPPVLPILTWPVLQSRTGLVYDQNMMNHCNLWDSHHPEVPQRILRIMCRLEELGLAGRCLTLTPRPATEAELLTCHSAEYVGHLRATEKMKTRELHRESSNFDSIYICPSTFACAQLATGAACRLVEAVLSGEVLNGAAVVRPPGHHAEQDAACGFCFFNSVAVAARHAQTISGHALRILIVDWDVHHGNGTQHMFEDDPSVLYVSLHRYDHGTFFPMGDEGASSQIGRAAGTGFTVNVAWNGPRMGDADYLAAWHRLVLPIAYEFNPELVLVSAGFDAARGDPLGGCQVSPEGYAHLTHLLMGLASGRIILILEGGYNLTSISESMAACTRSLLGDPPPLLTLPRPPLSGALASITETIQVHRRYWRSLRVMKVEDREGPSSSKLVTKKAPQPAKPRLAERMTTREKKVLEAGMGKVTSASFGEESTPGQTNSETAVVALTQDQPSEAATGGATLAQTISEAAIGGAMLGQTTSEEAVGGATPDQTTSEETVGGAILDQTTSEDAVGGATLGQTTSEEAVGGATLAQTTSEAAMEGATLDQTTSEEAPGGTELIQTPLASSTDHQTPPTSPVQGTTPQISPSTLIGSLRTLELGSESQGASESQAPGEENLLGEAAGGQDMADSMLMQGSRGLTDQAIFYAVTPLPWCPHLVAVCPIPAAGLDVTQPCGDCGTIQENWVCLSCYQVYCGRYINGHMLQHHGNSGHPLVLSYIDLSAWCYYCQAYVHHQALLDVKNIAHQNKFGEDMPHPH

human HDAC7 = target: T4, human HDAC7 (Homo sapiens, UniProt Q8WUI4); test: HDAC7 inhibitor enzymatic assay, % inhibition at fixed concentration; settings: read-out: %inhibition of HDACs at 10µM of test compound HDAC7
T4 sequence (Q8WUI4 479-952 limits assumed): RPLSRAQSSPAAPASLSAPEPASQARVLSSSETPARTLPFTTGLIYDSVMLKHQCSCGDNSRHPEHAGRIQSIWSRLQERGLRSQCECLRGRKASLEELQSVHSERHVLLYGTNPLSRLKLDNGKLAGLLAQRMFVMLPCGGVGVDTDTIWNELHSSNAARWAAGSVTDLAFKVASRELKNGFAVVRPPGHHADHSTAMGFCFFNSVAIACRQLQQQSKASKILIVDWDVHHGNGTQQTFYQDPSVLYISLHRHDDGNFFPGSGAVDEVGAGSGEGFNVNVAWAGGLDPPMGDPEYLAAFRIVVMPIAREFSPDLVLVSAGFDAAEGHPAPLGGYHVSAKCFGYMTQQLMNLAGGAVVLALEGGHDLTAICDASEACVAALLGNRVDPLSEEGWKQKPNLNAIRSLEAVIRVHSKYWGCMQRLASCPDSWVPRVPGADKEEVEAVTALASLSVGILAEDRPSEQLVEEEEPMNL

T1 sequence (Q13547 whole entry): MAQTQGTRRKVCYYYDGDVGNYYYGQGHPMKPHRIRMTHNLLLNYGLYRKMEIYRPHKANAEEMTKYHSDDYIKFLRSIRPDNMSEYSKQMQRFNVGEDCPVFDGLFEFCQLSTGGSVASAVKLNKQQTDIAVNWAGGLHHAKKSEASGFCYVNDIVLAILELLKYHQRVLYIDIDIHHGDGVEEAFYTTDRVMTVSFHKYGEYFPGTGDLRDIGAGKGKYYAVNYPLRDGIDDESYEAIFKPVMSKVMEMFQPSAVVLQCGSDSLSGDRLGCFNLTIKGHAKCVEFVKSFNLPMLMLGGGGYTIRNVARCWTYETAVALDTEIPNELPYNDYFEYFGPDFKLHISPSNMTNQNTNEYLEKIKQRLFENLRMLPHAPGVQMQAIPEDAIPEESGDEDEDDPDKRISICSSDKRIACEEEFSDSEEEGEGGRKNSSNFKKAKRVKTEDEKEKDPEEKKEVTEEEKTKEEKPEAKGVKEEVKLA
human HDAC3/NCOR2, sequence (O15379 whole entry): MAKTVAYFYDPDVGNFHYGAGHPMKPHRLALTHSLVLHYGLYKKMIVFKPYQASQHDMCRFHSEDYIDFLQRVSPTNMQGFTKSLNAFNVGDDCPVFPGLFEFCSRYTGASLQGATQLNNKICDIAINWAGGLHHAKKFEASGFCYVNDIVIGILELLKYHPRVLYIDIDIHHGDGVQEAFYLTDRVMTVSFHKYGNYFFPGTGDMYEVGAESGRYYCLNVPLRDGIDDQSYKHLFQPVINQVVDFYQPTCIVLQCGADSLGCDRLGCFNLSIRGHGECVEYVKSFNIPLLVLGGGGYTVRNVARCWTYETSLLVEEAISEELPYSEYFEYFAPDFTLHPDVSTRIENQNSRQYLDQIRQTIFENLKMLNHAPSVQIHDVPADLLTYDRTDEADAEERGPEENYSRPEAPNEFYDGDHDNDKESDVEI
human HDAC3/NCOR2, sequence (Q9Y618 395-489 partner limits assumed): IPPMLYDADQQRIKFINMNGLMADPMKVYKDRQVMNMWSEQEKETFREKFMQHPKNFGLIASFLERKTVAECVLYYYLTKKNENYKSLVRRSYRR
T2 sequence (Q92769 whole entry): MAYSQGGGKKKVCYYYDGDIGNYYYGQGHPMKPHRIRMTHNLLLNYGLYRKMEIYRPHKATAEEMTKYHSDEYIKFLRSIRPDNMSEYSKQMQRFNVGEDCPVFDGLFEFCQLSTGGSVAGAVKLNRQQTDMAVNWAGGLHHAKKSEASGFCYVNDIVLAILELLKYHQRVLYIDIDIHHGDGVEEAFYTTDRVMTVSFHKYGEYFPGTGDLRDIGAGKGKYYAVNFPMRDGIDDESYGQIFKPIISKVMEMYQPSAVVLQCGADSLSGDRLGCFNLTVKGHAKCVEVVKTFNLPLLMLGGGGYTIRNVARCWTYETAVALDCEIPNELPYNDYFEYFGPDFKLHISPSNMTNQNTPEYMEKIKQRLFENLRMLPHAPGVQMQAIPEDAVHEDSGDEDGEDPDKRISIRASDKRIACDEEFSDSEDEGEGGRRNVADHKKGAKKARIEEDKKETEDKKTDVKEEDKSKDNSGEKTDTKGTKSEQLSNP

Q: Which results are given for `O=C(CCCSc1nc2ccccc2n1Cc1ccccc1)NO` [Compound 10a, 4-((1-benzyl-1H-benzo[d]imidazol-2-yl)thio)-N-hydroxybutanamide]?
A: effect on cell index of CCHE-45, pilot experiment ([1]; 100 µM (highest conc.), 72 hrs): lowered cell index and induced cell death; effect on cell index (CI) of CCHE-45 ([1]; 100 µM, after 24 h from addition of the drug): reduced CI to half the maximum CI; effect on cell index (CI) of CCHE-45 ([1]; 400 µM or 200 µM, monitoring for 96 h): quick and dramatic reduction in cell index; IC50 ([1]; 96 h): 113 µM; IC50 [1]: 113 ± 11.1 µM; inhibition at 10 µM (human HDAC1): 36%; inhibition at 10 µM (human HDAC2): 19%; inhibition at 10 µM (human HDAC3/NCOR2): 37%; inhibition at 10 µM (human HDAC6): 92%; inhibition at 10 µM (human HDAC7): 2%
